In US20230250096A1, “SUBSTITUTED PHENYL-1H-PYRROLO[2,3-c] PYRIDINE DERIVATIVES” (Janssen Pharmaceutica NV, priority 2021, published 2023):

Target: T1, menin/MLL (terbium chelate-labeled menin, FITC-MBM1 peptide) (Homo sapiens, UniProt O00255, T541A)
T1 construct: Menin (a.a 1-610-6xhis tag, 2.3 mg/mL in 20 mM Hepes)
T1 sequence (O00255 with tags, fused parts or gaps T541A): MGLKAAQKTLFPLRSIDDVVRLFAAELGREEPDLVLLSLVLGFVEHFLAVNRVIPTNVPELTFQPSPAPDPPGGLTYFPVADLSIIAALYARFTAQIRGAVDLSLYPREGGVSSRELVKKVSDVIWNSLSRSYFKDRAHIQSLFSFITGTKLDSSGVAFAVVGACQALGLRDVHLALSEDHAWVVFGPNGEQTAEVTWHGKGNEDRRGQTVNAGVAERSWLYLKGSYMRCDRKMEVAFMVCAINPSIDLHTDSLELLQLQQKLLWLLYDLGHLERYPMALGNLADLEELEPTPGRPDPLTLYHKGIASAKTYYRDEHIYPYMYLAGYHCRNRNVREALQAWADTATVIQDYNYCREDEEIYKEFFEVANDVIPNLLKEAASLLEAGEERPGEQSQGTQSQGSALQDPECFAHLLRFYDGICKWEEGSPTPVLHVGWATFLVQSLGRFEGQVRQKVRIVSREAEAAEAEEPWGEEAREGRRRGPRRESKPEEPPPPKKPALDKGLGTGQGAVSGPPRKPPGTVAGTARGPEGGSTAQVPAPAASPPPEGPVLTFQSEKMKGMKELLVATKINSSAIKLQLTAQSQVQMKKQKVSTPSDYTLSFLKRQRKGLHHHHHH
Experiment: Menin/MLL homogenous time-resolved fluorescence (HTRF) assay
Format: binding
Details: 30 min incubation
Procedure, shortened: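 Terbium-labeled menin (a.a. 1-610, His-tagged; […]) pre-incubated 30 min with compound, then 75 nM FITC-MBM1 peptide added for 15 min at ambient temperature in Tris pH 7.5 buffer, 0.5% DMSO. HTRF 520/490 nm ratio read; IC50 from 11-point four-fold titrations, typically from 10 μM.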

| IC50 | SMILES |
| --- | --- |
| 0.365 nM | CC(=O)N1CCN(CCCC(C(C)C)N2CC[C@@H](Cc3cn(-c4ccc(F)cc4C(=O)N(C)C(C)C)c4cncc(C)c34)C2)CC1 (mixture of isomers) [Compound 8] |
| 0.138 nM | CC(=O)N1CCN(CCCC(C(C)C)N2CC[C@H](Cc3cn(-c4ccc(F)cc4C(=O)N(C)C(C)C)c4cncc(C)c34)C2)CC1 (mixture of isomers) [Compound 9] |
| 0.052 nM | CC(=O)N1C[C@@H]2CN([C@H]3C[C@@H](C(C(C)C)N4CC[C@H](Cc5cn(-c6ccc(F)cc6C(=O)N(C)C(C)C)c6cncc(C)c56)C4)C3)C[C@H]2C1 (mixture of isomers) [Compound 21] |
| 0.057 nM | CCC([C@H]1C[C@@H](N2CCN(C(C)=O)CC2)C1)N1CC[C@@H](Cc2cn(-c3ccc(F)cc3C(=O)N(C)C(C)C)c3cncc(C)c23)C1 (mixture of isomers) [Compound 24] |
| 0.299 nM | Cc1cncc2c1c(C[C@@H]1CCN(CC3CCOCC3)C1)cn2-c1ccc(F)cc1S(=N)(=O)C(C)C (mixture of isomers) [Compound 78] |
| 0.061 nM | Cc1cncc2c1c(C[C@@H]1CCN(CC3CCNC(=O)CC3)C1)cn2-c1ccc(F)cc1C(=O)N(C)C(C)C (mixture of isomers) [Compound 169] |
| 0.115 nM | Cc1cncc2c1c(C[C@@H]1CCN(CC3CCNC(=O)C3)C1)cn2-c1ccc(F)cc1C(=O)N(C)C(C)C (mixture of isomers) [Compound 212] |
| 0.049 nM | COCCN(C)CCCC(C(C)C)N1CC[C@H](Cc2cn(-c3ccc(F)cc3C(=O)N(C)C(C)C)c3cncc(C)c23)C1 (single isomer, unassigned) [Compound 2] |
| 0.301 nM | COCCN(C)CCC[C@H](C(C)C)N1CC[C@H](Cc2cn(-c3ccc(F)cc3C(=O)N(C)C(C)C)c3cncc(Cl)c23)C1 (single isomer, unassigned) [Compound 4a] |
| 0.094 nM | COCCN(C)CCC[C@@H](C(C)C)N1CC[C@H](Cc2cn(-c3ccc(F)cc3C(=O)N(C)C(C)C)c3cncc(Cl)c23)C1 (single isomer, unassigned) [Compound 4b] |
| 0.016 nM | CC(=O)N1CCN(CCCC(C(C)C)N2CCC(Cc3cn(-c4ccc(F)cc4C(=O)N(C)C(C)C)c4cncc(C)c34)C2)CC1 (single isomer, unassigned) [Compound 9a] |
| 0.032 nM | CC(=O)N1C[C@@H]2CN(CCC[C@H](C(C)C)N3CC[C@H](Cc4cn(-c5ccc(F)cc5C(=O)N(C)C(C)C)c5cncc(Cl)c45)C3)C[C@H]2C1 (single isomer, unassigned) [Compound 19a] |
| 0.07 nM | CN=S(=O)(c1cc(F)ccc1-n1cc(CC2CCN(CC3CCOCC3)C2)c2c(C)cncc21)C(C)C (single isomer, unassigned) [Compound 77b] |
| 0.208 nM | CN=S(=O)(c1cc(F)ccc1-n1cc(CC2CCN(CC3CCOCC3)C2)c2c(C)cncc21)C(C)C (single isomer, unassigned) [Compound 77d] |
| 0.425 nM | CC(=O)N1CCC(N2CC[C@H](Cc3cn(-c4ccc(F)cc4C(=O)N(C)C(C)C)c4cncc(C)c34)C2)CC1 (single isomer, unassigned) [Compound 81] |
| 0.113 nM | Cc1cncc2c1c(CC1CCN(CC3CCN(C(=O)[C@@H](C)O)CC3)C1)cn2-c1ccc(F)cc1C(=O)N(C)C(C)C (single isomer, unassigned) [Compound 85] |
| 0.042 nM | Cc1cncc2c1c(CC1CCN(CC3CCN(C(=O)[C@H](C)O)CC3)C1)cn2-c1ccc(F)cc1C(=O)N(C)C(C)C (single isomer, unassigned) [Compound 86] |
| 0.075 nM | CC(=O)N1CCC(C(C)N2CCC(Cc3cn(-c4ccc(F)cc4C(=O)N(C)C(C)C)c4cncc(C)c34)C2)CC1 (single isomer, unassigned) [Compound 116a] |

| IC50 | SMILES |
| --- | --- |
| 0.027 nM | Cc1cncc2c1c(CC1CCN(CC3CCN(C(=O)C(C)(C)O)CC3)C1)cn2-c1ccc(F)cc1C(=O)N(C)C(C)C (single isomer, unassigned) [Compound 125] |
| 0.151 nM | CN=[S@](=O)(c1cc(F)ccc1-n1cc(C[C@@H]2CCN(CC3CCN(C(C)=O)CC3)C2)c2c(C)cncc21)C(C)C (single isomer, unassigned) [Compound 128a] |
| ~0.094 nM | COCC(=O)N1CCC(CN2CC[C@@H](Cc3cn(-c4ccc(F)cc4C(=O)N(C)C(C)C)c4cncc(C)c34)C2)CC1 (single isomer, unassigned) [Compound 136] |
| 0.063 nM | CC(=O)N1CCC(N2CC[C@H](Cc3cn(-c4ccc(F)cc4C(=O)N(C)C(C)C)c4cncc(C)c34)C2)C(C)C1 (single isomer, unassigned) [Compound 137a] |
| 0.025 nM | CNC(=O)[C@H]1CC[C@H](CN2CC([C@H](C)c3cn(-c4ccc(F)cc4C(=O)N(C)C(C)C)c4cncc(C)c34)C2)CC1 (single isomer, unassigned) [Compound 164b] |
| 0.07 nM | COC[C@H](C1CCCCO1)N1CC[C@@H](Cc2cn(-c3ccc(F)cc3C(=O)N(C)C(C)C)c3cncc(C)c23)C1 (single isomer, unassigned) [Compound 165b] |
| 0.143 nM | Cc1cncc2c1c(C[C@@H]1CCN([C@H](C)C3CCOCC3)C1)cn2-c1ccc(F)cc1[S@](=N)(=O)C(C)C (single isomer, unassigned) [Compound 180a] |
| 0.066 nM | Cc1cncc2c1c(C[C@H]1CCN([C@H](C)C3CCOCC3)C1)cn2-c1ccc(F)cc1[S@](=N)(=O)C(C)C (single isomer, unassigned) [Compound 181a] |
| 0.041 nM | Cc1cncc2c1c(CC1CCN(CC3CCC(=O)N(C)CC3)C1)cn2-c1ccc(F)cc1C(=O)N(C)C(C)C (single isomer, unassigned) [Compound 184a] |
| 0.065 nM | Cc1cncc2c1c(CC1CCN(CC3CCC(=O)N(C)CC3)C1)cn2-c1ccc(F)cc1C(=O)N(C)C(C)C (single isomer, unassigned) [Compound 184b] |
| 0.101 nM | Cc1cncc2c1c(C[C@@H]1CCN(C[C@H]3CCOC3)C1)cn2-c1ccc(F)cc1C(=O)N(C)C(C)C (single isomer, unassigned) [Compound 190a] |
| 0.063 nM | Cc1cncc2c1c(C[C@@H]1CCN(C[C@@H]3CCOC3)C1)cn2-c1ccc(F)cc1C(=O)N(C)C(C)C (single isomer, unassigned) [Compound 190b] |
| 0.056 nM | Cc1cncc2c1c(CC1CN(C[C@H]3CCOC3)C1)cn2-c1ccc(F)cc1C(=O)N(C)C(C)C (single isomer, unassigned) [Compound 191a] |
| 0.071 nM | Cc1cncc2c1c(CC1CN(C[C@@H]3CCOC3)C1)cn2-c1ccc(F)cc1C(=O)N(C)C(C)C (single isomer, unassigned) [Compound 191b] |
| 0.034 nM | Cc1cncc2c1c(C[C@@H]1CCN([C@@H](CO)C3CCCOC3)C1)cn2-c1ccc(F)cc1C(=O)N(C)C(C)C (single isomer, unassigned) [Compound 198a] |
| 0.085 nM | Cc1cncc2c1c(C[C@@H]1CCN([C@H](CO)C3CCCOC3)C1)cn2-c1ccc(F)cc1C(=O)N(C)C(C)C (single isomer, unassigned) [Compound 198b] |
| 0.049 nM | Cc1cncc2c1c(C[C@@H]1CCN(CC3CCC(O)CC3)C1)cn2-c1ccc(F)cc1C(=O)N(C)C(C)C (single isomer, unassigned) [Compound 205a] |
| 0.035 nM | Cc1cncc2c1c(C[C@@H]1CCN(CC3CCC(O)CC3)C1)cn2-c1ccc(F)cc1C(=O)N(C)C(C)C (single isomer, unassigned) [Compound 205b] |
